According to PubChem BioAssay AID1963446 (Molecular Pharmacology Branch, DTP, NCI, 2024):
Each block holds one compound with its values, some of them ahead of it.

System: 993429-296-R-J1-PDC complex spheroid growth, percent test/control
Assay: Anticancer human tumor 993429-296-R-J1-PDC patient-derived uterine sarcoma cell line growth inhibition [Asc]
Details: for IC50: curve of first compound; for viability, T/C: stronger effect = lower value
In short: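 Spheroid model: tumor line + HUVEC + hMSC. Single agents and combinations; top conc. at/near clinical Cmax (10 microM if undetermined), half-log dilutions. DMSO stocks at 800-fold test concentration.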

[1] = second compound 0.1 µM, first compound 0.00949 µM
[2] = second compound 0.1 µM, first compound 0.03 µM
[3] = second compound 0.1 µM, first compound 0.0949 µM
[4] = second compound 0.1 µM, first compound 0.3 µM
[5] = second compound 0.1 µM, first compound 0.949 µM
[6] = second compound 0.1 µM, first compound 3 µM
[7] = second compound 0.316 µM, first compound 0.00949 µM
[8] = second compound 0.316 µM, first compound 0.03 µM
[9] = second compound 0.316 µM, first compound 0.0949 µM
[10] = second compound 0.316 µM, first compound 0.3 µM
[11] = second compound 0.316 µM, first compound 0.949 µM
[12] = second compound 0.316 µM, first compound 3 µM
[13] = second compound 1 µM, first compound 0.00949 µM
[14] = second compound 1 µM, first compound 0.03 µM
[15] = second compound 1 µM, first compound 0.0949 µM
[16] = second compound 1 µM, first compound 0.3 µM
[17] = second compound 1 µM, first compound 0.949 µM
[18] = second compound 1 µM, first compound 3 µM
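Also: spheroids exposed to compounds for seven days.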

- IC50 (second compound 0.03 µM): 1.1 µM
- IC50 (second compound 0.0949 µM): 1.2 µM
- IC50 (second compound 0.3 µM): 1.01 µM
- IC50 (second compound 0.949 µM): 1.3 µM
- IC50 (second compound 3 µM): 1.58 µM
SMILES: C=C(F)C(=O)N1CCN(c2nc(OCC3CCCN3C)nc3c2CCN(c2cccc4cccc(Cl)c24)C3)CC1CC#N (stereo not given) + CCN1C(C(=O)NC23CCC(C(=O)O)(CC2)CC3)C(c2cccc(Cl)c2F)C2(C(=O)Nc3cc(Cl)ccc32)C12CCCCC2
- viability, T/C (second compound 0.03 µM, first compound 0.0316 µM): 97.6%
- viability, T/C (second compound 0.03 µM, first compound 0.1 µM): 95.3%
- viability, T/C (second compound 0.03 µM, first compound 0.316 µM): 103%
- viability, T/C (second compound 0.03 µM, first compound 1 µM): 54%
- viability, T/C (second compound 0.03 µM, first compound 3.16 µM): 7.9%
- viability, T/C (second compound 0.03 µM, first compound 10 µM): 0.1%
- viability, T/C (second compound 0.0949 µM, first compound 0.0316 µM): 98.4%
- viability, T/C (second compound 0.0949 µM, first compound 0.1 µM): 98.2%
- viability, T/C (second compound 0.0949 µM, first compound 0.316 µM): 85.2%
- viability, T/C (second compound 0.0949 µM, first compound 1 µM): 59.8%
- viability, T/C (second compound 0.0949 µM, first compound 3.16 µM): 8.82%
- viability, T/C (second compound 0.0949 µM, first compound 10 µM): 0.11%
- viability, T/C (second compound 0.3 µM, first compound 0.0316 µM): 89.2%
- viability, T/C (second compound 0.3 µM, first compound 0.1 µM): 104%
- viability, T/C (second compound 0.3 µM, first compound 0.316 µM): 105%
- viability, T/C (second compound 0.3 µM, first compound 1 µM): 50.5%
- viability, T/C (second compound 0.3 µM, first compound 3.16 µM): 10.4%
- viability, T/C (second compound 0.3 µM, first compound 10 µM): 0.1%
- viability, T/C (second compound 0.949 µM, first compound 0.0316 µM): 93%
- viability, T/C (second compound 0.949 µM, first compound 0.1 µM): 88.3%
- viability, T/C (second compound 0.949 µM, first compound 0.316 µM): 78.2%
- viability, T/C (second compound 0.949 µM, first compound 1 µM): 63.9%
- viability, T/C (second compound 0.949 µM, first compound 3.16 µM): 5.95%
- viability, T/C (second compound 0.949 µM, first compound 10 µM): 0.11%
- viability, T/C (second compound 3 µM, first compound 0.0316 µM): 107%
- viability, T/C (second compound 3 µM, first compound 0.1 µM): 86.2%
- viability, T/C (second compound 3 µM, first compound 0.316 µM): 81.7%
- viability, T/C (second compound 3 µM, first compound 1 µM): 78.1%
- viability, T/C (second compound 3 µM, first compound 3.16 µM): 7.46%
- viability, T/C (second compound 3 µM, first compound 10 µM): 0.15%

- IC50 (second compound 0.1 µM): > 3 µM
- IC50 (second compound 0.316 µM): 1.27 µM
- IC50 (second compound 1 µM): 0.951 µM
- IC50 (second compound 3.16 µM): < 0.00949 µM
- IC50 (second compound 10 µM): > 3 µM
SMILES: CCN1C(C(=O)NC23CCC(C(=O)O)(CC2)CC3)C(c2cccc(Cl)c2F)C2(C(=O)Nc3cc(Cl)ccc32)C12CCCCC2 (stereo not given) + Cc1c(S(C)(=O)=O)c(-c2cc(F)cc(N3CCN(c4ccc(NS(=O)(=O)c5ccc(NC(CCN6CCC(C(=O)OCCCP(=O)(O)O)CC6)CSc6ccccc6)c(S(=O)(=O)C(F)(F)F)c5)cc4)CC3)c2)c(-c2ccc(Cl)cc2)n1C(C)C
- viability, T/C [1]: 88.1%
- viability, T/C [2]: 76.6%
- viability, T/C [3]: 94.8%
- viability, T/C [4]: 66.4%
- viability, T/C [5]: 62.8%
- viability, T/C [6]: 58.5%
- viability, T/C [7]: 63.1%
- viability, T/C [8]: 68.6%
- viability, T/C [9]: 68.4%
- viability, T/C [10]: 55.5%
- viability, T/C [11]: 54.8%
- viability, T/C [12]: 39.9%
- viability, T/C [13]: 57.6%
- viability, T/C [14]: 50.8%
- viability, T/C [15]: 50.7%
- viability, T/C [16]: 61.4%
- viability, T/C [17]: 48%
- viability, T/C [18]: 28.4%
- viability, T/C (second compound 3.16 µM, first compound 0.00949 µM): 47.1%
- viability, T/C (second compound 3.16 µM, first compound 0.03 µM): 51.9%
- viability, T/C (second compound 3.16 µM, first compound 0.0949 µM): 43.1%
- viability, T/C (second compound 3.16 µM, first compound 0.3 µM): 44.4%
- viability, T/C (second compound 3.16 µM, first compound 0.949 µM): 30.8%
- viability, T/C (second compound 3.16 µM, first compound 3 µM): 22.3%
- viability, T/C (second compound 10 µM, first compound 0.00949 µM): 81.3%
- viability, T/C (second compound 10 µM, first compound 0.03 µM): 91.9%
- viability, T/C (second compound 10 µM, first compound 0.0949 µM): 62.4%
- viability, T/C (second compound 10 µM, first compound 0.3 µM): 67.7%
- viability, T/C (second compound 10 µM, first compound 0.949 µM): 78.2%
- viability, T/C (second compound 10 µM, first compound 3 µM): 51.1%

- IC50 (second compound 0.01 µM): > 3 µM
- IC50 (second compound 0.0316 µM): > 3 µM
- IC50 (second compound 0.1 µM): > 3 µM
- IC50 (second compound 0.316 µM): < 0.00949 µM
- IC50 (second compound 1 µM): > 3 µM
SMILES: CCN1C(C(=O)NC23CCC(C(=O)O)(CC2)CC3)C(c2cccc(Cl)c2F)C2(C(=O)Nc3cc(Cl)ccc32)C12CCCCC2 (stereo not given) + CNC(C)C(=O)NC1CN(S(=O)(=O)c2cccc(S(=O)(=O)N3CCC4CCC(C(=O)NC(c5ccccc5)c5ccccc5)N4C(=O)C(NC(=O)C(C)NC)C3)c2)CCC2CCC(C(=O)NC(c3ccccc3)c3ccccc3)N2C1=O
- viability, T/C (second compound 0.01 µM, first compound 0.00949 µM): 66.7%
- viability, T/C (second compound 0.01 µM, first compound 0.03 µM): 61.1%
- viability, T/C (second compound 0.01 µM, first compound 0.0949 µM): 64%
- viability, T/C (second compound 0.01 µM, first compound 0.3 µM): 66.5%
- viability, T/C (second compound 0.01 µM, first compound 0.949 µM): 74.5%
- viability, T/C (second compound 0.01 µM, first compound 3 µM): 60%
- viability, T/C (second compound 0.0316 µM, first compound 0.00949 µM): 66.2%
- viability, T/C (second compound 0.0316 µM, first compound 0.03 µM): 61.2%
- viability, T/C (second compound 0.0316 µM, first compound 0.0949 µM): 55%
- viability, T/C (second compound 0.0316 µM, first compound 0.3 µM): 54.5%
- viability, T/C (second compound 0.0316 µM, first compound 0.949 µM): 68.5%
- viability, T/C (second compound 0.0316 µM, first compound 3 µM): 61.1%
- viability, T/C [1]: 58.9%
- viability, T/C [2]: 50%
- viability, T/C [3]: 56%
- viability, T/C [4]: 48.4%
- viability, T/C [5]: 60.1%
- viability, T/C [6]: 64%
- viability, T/C [7]: 48.9%
- viability, T/C [8]: 55.7%
- viability, T/C [9]: 53%
- viability, T/C [10]: 60.8%
- viability, T/C [11]: 68.7%
- viability, T/C [12]: 58.1%
- viability, T/C [13]: 55.3%
- viability, T/C [14]: 59.9%
- viability, T/C [15]: 45.4%
- viability, T/C [16]: 40.9%
- viability, T/C [17]: 51.8%
- viability, T/C [18]: 63.1%
